This is an account of results in patent publication US12473339B2, “Acylated glucagon analogues” (Zealand Pharma A/S, priority 2013, dated 2025).

pEC50: −log10 of the molar value.

The target of test [1] is T1, endogenous GLP-1 receptors (Mus musculus, UniProt O35659).
T1 construct: Agonistic activity of the test compounds on endogenous GLP-1 receptors; endogenous in cells
T1 sequence (O35659 22-463): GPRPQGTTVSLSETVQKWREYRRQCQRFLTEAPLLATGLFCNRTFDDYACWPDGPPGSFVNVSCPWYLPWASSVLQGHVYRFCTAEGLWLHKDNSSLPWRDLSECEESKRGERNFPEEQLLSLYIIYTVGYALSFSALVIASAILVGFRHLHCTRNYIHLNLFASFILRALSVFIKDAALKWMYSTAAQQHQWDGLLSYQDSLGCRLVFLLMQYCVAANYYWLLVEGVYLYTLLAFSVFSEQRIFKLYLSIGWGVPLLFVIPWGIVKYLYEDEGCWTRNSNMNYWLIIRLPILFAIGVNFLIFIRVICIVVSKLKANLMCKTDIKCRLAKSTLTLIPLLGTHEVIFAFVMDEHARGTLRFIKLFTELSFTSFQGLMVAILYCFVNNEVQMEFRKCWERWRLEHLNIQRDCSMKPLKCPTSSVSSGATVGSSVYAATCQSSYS
Nature of the test: Agonistic activity on endogenous GLP-1 receptor (cAMP, murine insulinoma cell line). Type of test: cell-based. The settings on record: intracellular cAMP, 15 minutes at 26° C. Here is the method:
Agonistic activity of the test compounds on endogenous GLP-1 receptors was determined using a murine insulinoma cell line. Intracellular cAMP was used an indicator of receptor activation.
Cells were cultured for 24 h at a density of 10,000 cells/well in a 384-well plate. Medium was removed and 10 μL KRBH buffer (NaCl 130 mM, KCl 3.6 mM, NaH2PO4 0.5 mM, MgSO4 0.5 mM, CaCl2 1.5 mM) containing test compound or GLP-1 (at increasing concentrations from 0.1 pM to 100 nM) or solvent control (0.1% (v/v) DMSO) was added to the wells for 15 minutes at a temperature of 26° C.
The cellular cAMP content is measured using the AlphaScreen cAMP Functional Assay Kit (Perkin Elmer). Measurement was performed using the Envision (PerkinElmer) according to manufacturer's recommendations.
Results were converted into cAMP concentrations using a cAMP standard curve prepared in KRBH buffer containing 0.1% (v/v) DMSO. The resulting cAMP curves were plotted as absolute cAMP concentrations (nM) over log (test compound concentration) and analyzed using the curve fitting program XLfit. […]

In test [2] the target is T2, human glucagon-like peptide 1 receptor (GLP-1R) (Homo sapiens, UniProt P43220).
T2 construct: expressed in transfected cells
The experiment in a line: GLP-1 receptor efficacy assay (cAMP AlphaScreen, CHO cells). Type of test: cell-based. The conditions noted are these: EC50 [GLP-1R] / EC50 [Glucagon-R], human receptors in CHO-K1. An outline of the steps:
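Stable CHO clones expressing the human receptor, seeded 24 h before assay. Peptides applied for 15 min at room temperature in KRBH with 0.1 mM IBMX; cells lysed and cAMP quantified by AlphaScreen. EC50 and efficacy relative to glucagon or GLP-1 from curve fitting.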
On the technique in general: Bead proximity is the source of the signal in Alpha formats.

T2 sequence (P43220 24-463): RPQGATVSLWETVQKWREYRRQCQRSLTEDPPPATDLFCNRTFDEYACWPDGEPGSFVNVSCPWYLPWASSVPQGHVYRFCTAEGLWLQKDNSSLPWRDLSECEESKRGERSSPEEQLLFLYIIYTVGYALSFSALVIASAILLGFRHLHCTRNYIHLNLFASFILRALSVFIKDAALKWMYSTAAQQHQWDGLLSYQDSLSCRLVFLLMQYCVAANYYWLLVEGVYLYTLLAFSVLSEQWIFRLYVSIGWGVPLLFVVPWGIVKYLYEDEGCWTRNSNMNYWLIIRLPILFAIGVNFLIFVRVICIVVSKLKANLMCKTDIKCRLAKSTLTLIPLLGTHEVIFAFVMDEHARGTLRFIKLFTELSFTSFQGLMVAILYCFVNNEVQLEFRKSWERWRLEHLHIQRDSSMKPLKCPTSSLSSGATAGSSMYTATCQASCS

For orientation: pEC50 means the EC50 on a negative log10 scale, so that one unit is a factor of ten. The low end stands for a high EC50, the high end for a low EC50. For the compound `CC(C)C[C@H](NC(=O)[C@H](CC(C)C)NC(=O)[C@H](Cc1c[nH]c2ccccc12)NC(=O)[C@H](CCC(=O)O)NC(=O)[C@@H](NC(=O)[C@H](Cc1ccccc1)NC(=O)[C@H](CC(=O)O)NC(=O)[C@H](Cc1c[nH]cn1)NC(=O)[C@H](C)NC(=O)[C@H](C)NC(=O)[C@H](CCCCNC(=O)CC[C@H](NC(=O)CCCCCCCCCCCCCCC(=O)O)C(=O)O)NC(=O)[C@H](CO)NC(=O)[C@H](CC(=O)O)NC(=O)[C@H](CC(C)C)NC(=O)[C@H](Cc1ccc(O)cc1)NC(=O)[C@H](CCCCN)NC(=O)[C@H](CO)NC(=O)[C@H](Cc1ccc(O)cc1)NC(=O)[C@H](CC(=O)O)NC(=O)[C@H](CO)NC(=O)[C@@H](NC(=O)[C@H](Cc1ccccc1)NC(=O)[C@@H](NC(=O)CNC(=O)[C@H](CCC(N)=O)NC(=O)C(C)(C)NC(=O)[C@@H](N)Cc1c[nH]cn1)[C@@H](C)O)[C@@H](C)O)C(C)C)C(=O)N[C@@H](CO)C(=O)N[C@@H](C)C(N)=O` [Compound 1, H-H-Aib-QGTFTSDYSKYLDS-K([15-carboxy-pentadecanoyl]-isoGlu)-AAHDFVEWLLSA-NH2], in test [1], the pEC50 was 9.22. Moreover, the “Ratio GLP-1/Glucagon” value in test [2] is 1.81.

For `CC[C@H](C)[C@H](NC(=O)[C@H](Cc1ccccc1)NC(=O)[C@H](CC(=O)O)NC(=O)[C@H](CCCCN)NC(=O)[C@H](C)NC(=O)[C@H](C)NC(=O)[C@H](CCCCNC(=O)CC[C@H](NC(=O)CCCCCCCCCCCCCCCCC(=O)O)C(=O)O)NC(=O)[C@H](CCC(=O)O)NC(=O)[C@H](CC(=O)O)NC(=O)[C@H](CC(C)C)NC(=O)[C@H](Cc1ccc(O)cc1)NC(=O)[C@H](CCCCN)NC(=O)[C@H](CO)NC(=O)[C@H](Cc1ccc(O)cc1)NC(=O)[C@H](CC(=O)O)NC(=O)[C@H](CO)NC(=O)[C@@H](NC(=O)[C@H](Cc1ccccc1)NC(=O)[C@@H](NC(=O)CNC(=O)[C@H](CCC(N)=O)NC(=O)C(C)(C)NC(=O)[C@@H](N)Cc1c[nH]cn1)[C@@H](C)O)[C@@H](C)O)C(=O)N[C@@H](CCC(=O)O)C(=O)N[C@@H](Cc1c[nH]c2ccccc12)C(=O)N[C@@H](CC(C)C)C(=O)N[C@@H](CCC(=O)O)C(=O)N[C@@H](CO)C(=O)N[C@@H](C)C(N)=O` [Compound 10, H-H-Aib-QGTFTSDYSKYLDE-K([17-carboxy-heptadecanoyl]-isoGlu)-AAKDFIEWLESA-NH2], in test [1], the pEC50 was 9.22. The “Ratio GLP-1/Glucagon” value in test [2] is recorded as 0.38.
